In assay [1] the target is T1, glycine transporter-1 (GlyT-1) (Homo sapiens, UniProt P48067).
T1 construct: JAR cells (ATCC#HTB-144), which endogenously express GlyT-1; host or cells: JAR human choriocarcinoma cells
T1 sequence (P48067 1-706): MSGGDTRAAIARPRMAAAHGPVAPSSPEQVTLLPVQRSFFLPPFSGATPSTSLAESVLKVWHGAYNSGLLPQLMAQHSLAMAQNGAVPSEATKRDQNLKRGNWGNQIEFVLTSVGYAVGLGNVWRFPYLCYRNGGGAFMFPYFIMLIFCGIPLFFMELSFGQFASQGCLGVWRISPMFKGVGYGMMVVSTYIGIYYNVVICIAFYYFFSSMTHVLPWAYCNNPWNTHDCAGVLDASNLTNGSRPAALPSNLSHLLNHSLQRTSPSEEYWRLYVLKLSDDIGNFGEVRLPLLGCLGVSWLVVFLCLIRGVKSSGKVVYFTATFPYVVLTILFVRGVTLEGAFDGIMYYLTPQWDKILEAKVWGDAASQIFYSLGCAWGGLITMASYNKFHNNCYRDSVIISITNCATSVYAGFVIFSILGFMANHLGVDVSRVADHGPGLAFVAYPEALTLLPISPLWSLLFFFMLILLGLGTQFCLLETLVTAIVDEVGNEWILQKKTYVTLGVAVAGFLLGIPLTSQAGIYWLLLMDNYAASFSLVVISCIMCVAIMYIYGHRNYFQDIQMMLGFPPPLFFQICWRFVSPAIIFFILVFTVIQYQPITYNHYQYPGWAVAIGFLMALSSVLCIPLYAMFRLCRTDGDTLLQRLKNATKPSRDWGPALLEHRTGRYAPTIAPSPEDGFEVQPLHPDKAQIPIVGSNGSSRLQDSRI
Kind of assay: [14C]glycine uptake assay in JAR cells endogenously expressing GlyT-1 (scintillation proximity). It is filed as cell-based. The settings on record: JAR cells, [14C]glycine 5 μM, 3 hour incubation; read-out: GlyT-1 IC50. In outline:
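Human choriocarcinoma JAR cells (endogenous GlyT-1) attached overnight, then pre-incubated 10 min at room temperature with compound in pH 7.4 Hepes uptake buffer containing 5 mM alanine and 0.75% DMSO. Uptake of 5 μM [14C]glycine over 3 h at 37 °C read by scintillation proximity; IC50 from four-parameter fit of nine-point curves.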

Assay [2] addresses T2, glycine transporter-2 (GlyT-2) (Homo sapiens, UniProt Q9Y345).
T2 construct: expressed in transfected cells
T2 sequence (Q9Y345 1-797): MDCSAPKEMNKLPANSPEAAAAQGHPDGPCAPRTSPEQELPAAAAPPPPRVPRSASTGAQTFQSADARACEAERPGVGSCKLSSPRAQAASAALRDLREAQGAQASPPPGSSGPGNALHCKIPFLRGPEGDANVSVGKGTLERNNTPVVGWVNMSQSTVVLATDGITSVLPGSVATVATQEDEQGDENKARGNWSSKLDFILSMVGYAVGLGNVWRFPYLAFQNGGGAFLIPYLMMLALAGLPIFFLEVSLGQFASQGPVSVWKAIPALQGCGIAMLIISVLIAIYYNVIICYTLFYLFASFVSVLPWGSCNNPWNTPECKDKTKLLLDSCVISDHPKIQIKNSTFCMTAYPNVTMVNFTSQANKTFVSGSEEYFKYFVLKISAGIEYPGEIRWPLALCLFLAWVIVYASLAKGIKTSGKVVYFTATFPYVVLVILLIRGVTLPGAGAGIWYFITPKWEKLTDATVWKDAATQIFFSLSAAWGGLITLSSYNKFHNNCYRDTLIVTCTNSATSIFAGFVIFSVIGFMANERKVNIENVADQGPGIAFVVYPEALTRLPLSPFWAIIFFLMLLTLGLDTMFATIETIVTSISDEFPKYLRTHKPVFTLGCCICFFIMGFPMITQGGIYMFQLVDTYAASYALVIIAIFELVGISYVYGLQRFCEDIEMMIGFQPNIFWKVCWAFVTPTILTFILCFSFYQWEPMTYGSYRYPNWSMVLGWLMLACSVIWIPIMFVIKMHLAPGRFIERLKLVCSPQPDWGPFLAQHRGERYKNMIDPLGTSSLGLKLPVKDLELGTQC
Kind of assay: [14C]glycine uptake assay in HEK-GlyT-2 transfected cells. It is filed as cell-based. As to conditions: HEK-GlyT-2 cells.

Each structure is given as a SMILES string. Counter-ions that a name gives are not always drawn.

This is an account of results in US9045445B2, “Glycine transporter-1 inhibitors, methods of making them, and uses thereof” (Albany Molecular Research, Inc., priority 2010, dated 2015).

In the case of `O=C(NCC1(N2CCN(S(=O)(=O)c3cn(C(F)F)nn3)CC2)CCC(F)(F)CC1)c1ccc(C(F)(F)F)cc1Cl` [compound 236, 2-Chloro-N-((1-(4-(1-(difluoromethyl)-1H-1,2,3-triazol-4-ylsulfonyl)piperazin-1-yl)-4,4-difluorocyclohexyl)methyl)-4-(trifluoromethyl) benzamide Hydrochloride], the IC50 in assay [1] was 41 nM; in assay [2] it was above 75000 nM.
Taken in the same sequence, the figures for `CCCS(=O)(=O)N1CCN(C2(CNC(=O)c3ccc(Cl)cc3OC)CCCCCC2)CC1` [compound 53, 4-Chloro-2-methoxy-N-((1-(4-(propylsulfonyl)piperazin-1-yl)cycloheptyl)methyl) benzamide Hydrochloride] were 373 nM and above 75000 nM.
The matching figures for `CC1CN(C2(CNC(=O)c3ccc(C(F)(F)F)cc3Cl)CCC(F)(F)CC2)CCN1S(=O)(=O)c1cn(C)nn1` (racemic) [compound 227, (±)-2-Chloro-N-((4,4-difluoro-1-(3-methyl-4-(1-methyl-1H-1,2,3-triazol-4-ylsulfonyl)piperazin-1-yl)cyclohexyl)methyl)-4-(trifluoromethyl)benzamide Hydrochloride]: 7 nM and above 75000 nM.
Taken in the same sequence, the figures for `CCS(=O)(=O)N1CCN(C2(CNC(=O)c3c(Cl)cccc3Cl)CCCCCC2)CC1` [compound 88, 2,6-Dichloro-N-((1-(4-(ethylsulfonyl)piperazin-1-yl)cycloheptyl)methyl) benzamide Hydrochloride] were 195 nM and above 75000 nM.
Take `CCCS(=O)(=O)N1CCN(C2(CNC(=O)c3cc(F)c(Cl)cc3Cl)CCC(F)(F)CC2)CC1` [compound 263, 2,4-Dichloro-N-((4,4-difluoro-1-(4-(propylsulfonyl)piperazin-1-yl)cyclohexyl)methyl)-5-fluorobenzamide Hydrochloride]: the IC50 in assay [1] is 23 nM; in assay [2], above 75000 nM.
The matching figures for `CCCS(=O)(=O)N1CCN(C2(CNC(=O)c3cc(F)c(F)cc3Cl)CCC(F)(F)CC2)CC1` [compound 264, 2-Chloro-N-((4,4-difluoro-1-(4-(propylsulfonyl)piperazin-1-yl)cyclohexyl)methyl)-4,5-difluorobenzamide Hydrochloride]: 48 nM and above 75000 nM.
The matching figures for `CCCS(=O)(=O)N1CCN(C2(CNC(=O)c3ccc(OC(F)(F)F)cc3)CCCCC2)CC1` [compound 6, N-((1-(4-(Propylsulfonyl)piperazin-1-yl)cyclohexyl)methyl)-4-(trifluoromethoxy) benzamide Hydrochloride]: 118 nM and 28600 nM.
The matching figures for `CCCS(=O)(=O)N1CCN(C2(CNC(=O)c3ccccc3F)CCCCCC2)CC1` [compound 63, 2-Fluoro-N-((1-(4-(propylsulfonyl)piperazin-1-yl)cycloheptyl)methyl) benzamide Hydrochloride]: 99 nM and above 75000 nM.
Consider `CCCS(=O)(=O)N1CCN(C2(CNC(=O)c3ccc(C(F)(F)F)cc3)CCCCC2)CC1` [compound 7, N-((1-(4-(Propyl-sulfonyl)piperazin-1-yl)cyclohexyl)methyl)-4-(trifluoromethyl) benzamide Hydrochloride], for which the IC50 in assay [1] was 126 nM; in assay [2], above 30000 nM.
The matching figures for `Cn1cc(S(=O)(=O)N2CCN(C3(CNC(=O)c4c(F)cccc4F)CCCCC3)CC2)nn1` [compound 114, 2,6-Difluoro-N-((1-(4-(1-methyl-1H-1,2,3-triazol-4-ylsulfonyl)piperazin-1-yl)cyclohexyl)methyl) benzamide Hydrochloride]: 2 nM and above 75000 nM.
Taken in the same sequence, the figures for `CCCS(=O)(=O)N1CCN(C2(CNC(=O)c3ccc(C(F)(F)F)cc3)CCCCCC2)CC1` [compound 61, N-((1-(4-(Propylsulfonyl)piperazin-1-yl)cycloheptyl)methyl)-4-(trifluoromethyl) benzamide Hydrochloride] were 105 nM and 28000 nM.

As usually defined, the IC50 is the concentration that gives 50% inhibition.
